In patent US20240246984A1, “HETEROCYCLIC JAK INHIBITOR” (BEIJING INNOCARE PHARMA TECH CO., LTD., priority 2020, published 2024):
Where two headings read alike, the source gives them in different places.

Assays:
[1] = biological target: human recombinant JAK2 protein (Homo sapiens, UniProt O60674); assay: JAK2 activity inhibition assay (HTRF kinase detection); assay type: biochemical; conditions: 2.5 μM ATP substrate solution
Procedure: The effect of the compounds of the present invention on the activity of JAK2 was assessed by using an in vitro kinase detection assay.
The enzymatic activity of JAK2 was assessed by detecting the substrate phosphorylation level in a kinase reaction with a homogeneous time-resolved fluorescence (HTRF) kinase detection kit (Cisbio, 62TK0PEC). A reaction buffer contained an enzyme buffer (1×), 5 mM MgCl2, 1 mM DTT and 0.01% Brij35 from the kit; a human recombinant JAK2 protein (Carna Biosciences, 08-045) was diluted to a kinase reaction solution of 0.15 ng/μL with the reaction buffer; a substrate reaction solution contained 2.5 μM ATP and a biotin-labeled tyrosine kinase substrate diluted to 0.25 μM with the reaction buffer; a detection buffer contained 0.1 ng/μL Eu^3+ labeled cage antibody (Cisbio, 61T66KLB) and 12.5 nM streptavidin-labeled XL665 (Cisbio, 610SAXLB) in the reaction buffer; the compound was dissolved to 10 μM in DMSO, followed by a serial 4-fold dilution with DMSO to a minimum concentration of 0.061 nM. Each concentration was further diluted 40-fold with the reaction buffer. To a 384-well assay plate (Corning, 3674) were added 4 μL of the compound solutions having a series of concentrations and 2 μL of JAK2 kinase reaction solutions. After being mixed evenly, the mixtures were incubated at room temperature for 15 minutes, and then 4 μL of the substrate reaction solutions were added. The reaction mixtures were incubated at room temperature for 30 minutes. Then the reaction mixtures were added with 10 μL of detection solutions, mixed evenly, and allowed to stand at room temperature for 30 minutes. An Envision plate reader (Perkin Elmer) was then used to measure the progress of the reaction at wavelengths of 620 nm and 665 nm. The signal value (absorbance at 665 nm/absorbance at 620 nm) was positively correlated with the degree of substrate phosphorylation, therefore the kinase activity of JAK2 was detected. In this assay, the group without JAK2 kinase protein was the 100% inhibition group, and the group with JAK2 kinase protein but without the test compound was the 0% inhibition group. The compound inhibition curve was plotted using XLfit software and the IC50 of its inhibition was calculated.

[2] = biological target: human recombinant TYK2 protein (Homo sapiens, UniProt P29597); assay: TYK2 activity inhibition assay (HTRF kinase detection); assay type: biochemical; conditions: 11.25 μM ATP substrate solution
Procedure: The effect of the compounds of the present invention on the activity of TYK2 was assessed by using an in vitro kinase detection assay.
The enzymatic activity of TYK2 was assessed by detecting the substrate phosphorylation level in a kinase reaction with a homogeneous time-resolved fluorescence (HTRF) kinase detection kit (Cisbio, 62TK0PEC). A reaction buffer contained an enzyme buffer (1×), 5 mM MgCl2, 1 mM DTT and 0.01% Brij35 from the kit; a human recombinant TYK2 protein (Carna Biosciences, 08-147) was diluted to a kinase reaction solution of 0.25 ng/μL with the reaction buffer; a substrate reaction solution contained 11.25 μM ATP and a biotin-labeled tyrosine kinase substrate diluted to 0.5 μM with the reaction buffer; a detection buffer contained 0.1 ng/μL Eu^3+ labeled cage antibody (Cisbio, 61T66KLB) and 25 nM streptavidin-labeled XL665 (Cisbio, 610SAXLB) in the reaction buffer; the compound was dissolved to 10 μM in DMSO, followed by a serial 4-fold dilution with DMSO to a minimum concentration of 0.061 nM. Each concentration was further diluted 40-fold with the reaction buffer. To a 384-well assay plate (Corning, 3674) were added 4 μL of the compound solutions having a series of concentrations and 2 μL of kinase reaction solutions. After being mixed evenly, the mixtures were incubated at room temperature for 15 minutes, and then 4 μL of the substrate reaction solutions were added. The reaction mixtures were incubated at room temperature for 40 minutes. Then the reaction mixtures were added with 10 μL of detection solutions, mixed evenly, and allowed to stand at room temperature for 30 minutes. An Envision plate reader (Perkin Elmer) was then used to measure the progress of the reaction at wavelengths of 620 nm and 665 nm. The signal value (absorbance at 665 nm/absorbance at 620 nm) was positively correlated with the degree of substrate phosphorylation, therefore the kinase activity of TYK2 was detected. In this assay, the group without TYK2 kinase protein was the 100% inhibition group, and the group with TYK2 kinase protein but without the test compound was the 0% inhibition group. The compound inhibition curve was plotted using XLfit software and the IC50 of its inhibition was calculated.

[3] = system: IL-12-induced IFN-γ secretion in NK92 cells; assay: Inhibition of IL-12-induced IFN-γ secretion in NK92 cells (ELISA); assay type: cell-based; conditions: Homo sapiens, IL-12 stimulation, 24 hours, read-out: IC50 (NK92IL12/IFN-γ)
Procedure: The effect of the compounds of the present invention on IFN-γ secretion in IL-12-induced NK92 cells was evaluated by an enzyme-linked immunosorbent assay (ELISA).
The assay principle was generally described below: IL-12R was mainly expressed in activated T-cells, NK cells (NK92 was an NK cell line), DC cells, and B-cells. When binding to IL-12, it activated the JAK2/TYK2 signal transduction pathway within NK cells and activated T lymphocytes, thereby inducing secretion of IFN-γ.
The compound was dissolved to 2.5 mM in DMSO, followed by a serial 4-fold dilution with DMSO to a minimum concentration of 0.31 μM. Each concentration was further diluted 50-fold with an FBS-free MEMα medium (Thermofisher. 12561-056).
NK92 cells (Nanjing Cobioer, CBP60980) were cultured in a complete MEMα medium containing 12.5% FBS (Ausbian, VS500T), 12.5% horse serum (Thermofisher, 16050-122), 0.02 mM folic acid (Sigma, F8758), 0.2 mM inositol (Sigma, 17850), 0.55 mM β-mercaptoethanol (Thermofish, 21985-023), 200 U/mL IL-2 (R&D Systems, 202-1L), and 100 U/mL penicillin-streptomycin mixed liquor (ThermoFisher, 15140122). When covering 80-90% of the culture container surface, the cells were dispersed and plated on a 96-well plate (ThermoFisher, 167425) with 100,000 cells per well (80 μL of the complete MEMα medium without IL-2). The 96-well plate was then incubated overnight in a 37° C., 5% CO2 incubator.
After overnight incubation, 10 μL of the compound and 10 μL of 50 ng/ml IL-12 (R &D Systems, 219-1L) were added to each well and mixed gently, and the 96-well plate was incubated in the 37° C., 5% CO2 incubator for additional 24 hours. The plate was centrifuged at 800 rpm for 10 minutes at room temperature and 50 μL of the supernatant from each well was transferred to another 96-well plate (Sigma, CLS3695) coated with anti-IFN-γ antibody. The amount of IFN-γ secretion was detected following the instruction from the Human IFN-γ DuoSet ELISA assay kit (R & D Systems, DY285B). In this assay, the group in which IL-12 and the test compound were replaced with the MEMα medium was the non-stimulated control group (100% inhibition), and the group with IL-12 and 0.2% DMSO was the stimulated control group (0% inhibition). The compound inhibition curve was plotted using XLfit software and the IC50 of its inhibition was calculated.

[4] = Pharmacokinetic assay in mice (plasma and colon exposure); assay type: in vivo; conditions: fed female C57 mice, 25 mg/kg PO, 4 hours after dosing; for concentration at 4 h: mouse
Procedure: Test compounds were formulated into a 5 mg/mL dosing sample (suspension or solution) in a 20% HP-β-CD vehicle.
3 fed female C57 mice were each dosed 5 mL/kg by gavage (PO) at a dose of 25 mg/kg. Blood samples were collected 4 hours after dosing, and then animals were killed by CO2. Colons near the end of the rectum, approximately 4-6 cm in length, were dissected, rinsed with cold saline, blotted dry with absorbent paper, and weighed.
Concentrations of the test compounds in the plasma and intestinal homogenate sample were quantified by LC-MS/MS using an API-4500 mass spectrometer with a plasma limit of quantitation (LOQ) of 1 ng/mL.

[5] = colon homogenate, read-out: Colon exposure
[6] = plasma, LOQ 1 ng/mL, read-out: Plasma exposure

Structure (SMILES)	IC50 [1] [nM]	IC50 [2] [nM]	IC50 [3] [nM]	concentration at 4 h [4, 5] [ng/g]	concentration at 4 h [4, 6] [ng/mL]	Plasma exposure ([4]; plasma, LOQ 1 ng/mL)
O=C(c1ccc(Nc2nc(-c3c(F)cccc3F)n3cc[nH]c(=O)c23)cc1)N1CCOCC1 [Compound 1, 3-(2,6-difluorophenyl)-1-((4-(morpholine-4-carbonyl)phenyl)amino)imidazo[1,5-a]pyrazin-8(7H)-one]	0.3	0.2	57	5210	249	–
CN1CCN(C(=O)c2ccc(Nc3nc(-c4c(F)cccc4F)n4cc[nH]c(=O)c34)cc2)CC1 [Compound 29, 3-(2,6-difluorophenyl)-1-((4-(4-methylpiperazine-1-carbonyl)phenyl)amino)imidazo[1,5-a]pyrazin-8(7H)-one]	0.7	0.1	75	3920	75	–
CC(C)(C(=O)N1CCNCC1)c1ccc(Nc2nc(-c3c(F)cccc3F)n3cc[nH]c(=O)c23)cc1 [Compound 36, 3-(2,6-difluorophenyl)-1-((4-(2-methyl-1-oxo-1-(piperazin-1-yl)propan-2-yl)phenyl)amino)imidazo[1,5-a]pyrazin-8(7H)-one]	0.6	0.4	3480	5090	18	–
CC(C)(C(=O)O)c1ccc(Nc2nc(-c3c(F)cccc3F)n3cc[nH]c(=O)c23)cc1 [Compound 40, 2-(4-((3-(2,6-difluorophenyl)-8-oxo-7,8-dihydroimidazo[1,5-a]pyrazin-1-yl)amino)phenyl)-2-methylpropanoic acid]	2.8	0.4	406	–	–	–

The next lines start with the values.

IC50 [1] [nM]	IC50 [2] [nM]	IC50 [3] [nM]	concentration at 4 h [4, 5] [ng/g]	concentration at 4 h [4, 6] [ng/mL]	Plasma exposure ([4]; plasma, LOQ 1 ng/mL)	Structure (SMILES)
0.6	0.03	38	2850	15	–	NC(=O)c1ccc(Nc2nc(-c3c(F)cccc3Cl)n3cc[nH]c(=O)c23)cc1 [Compound 28, 4-((3-(2-chloro-6-fluorophenyl)-8-oxo-7,8-dihydroimidazo[1,5-a]pyrazin-1-yl)amino)benzamide]
0.8	0.1	318	12200	–	BLOQ	O=C(c1ccc(Nc2nc(-c3c(F)cccc3F)n3cc[nH]c(=O)c23)cc1)N1CCNCC1 [Compound 30, 3-(2,6-difluorophenyl)-1-((4-(piperazine-1-carbonyl)phenyl)amino)imidazo[1,5-a]pyrazin-8(7H)-one]
0.6	0.1	65	2700	50	–	CC(C)(C(N)=O)c1ccc(Nc2nc(-c3c(F)cccc3F)n3cc[nH]c(=O)c23)cc1 [Compound 34, 2-(4-((3-(2,6-difluorophenyl)-8-oxo-7,8-dihydroimidazo[1,5-a]pyrazin-1-yl)amino)phenyl)-2-methylpropanamide]
